Results as given in patent US20240083861A1, “HSD17B13 INHIBITORS AND USES THEREOF” (FL2022-001, Inc., priority 2020, published 2024).

Target: T1, Recombinant human HSD17B13 enzyme (Homo sapiens, UniProt Q7Z5P4)
T1 sequence (Q7Z5P4 20-300): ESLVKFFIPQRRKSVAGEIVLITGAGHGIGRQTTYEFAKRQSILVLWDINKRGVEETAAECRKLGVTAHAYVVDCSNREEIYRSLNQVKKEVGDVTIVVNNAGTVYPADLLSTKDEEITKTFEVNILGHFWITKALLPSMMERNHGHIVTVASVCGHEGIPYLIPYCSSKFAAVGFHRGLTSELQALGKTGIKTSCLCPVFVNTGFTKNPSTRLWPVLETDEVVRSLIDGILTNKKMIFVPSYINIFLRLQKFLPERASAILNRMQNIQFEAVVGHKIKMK
Assay: HSD17b13 NAD(P)H-Glo biochemical assay
Conditions: 50 uM estradiol, 1 mM NAD+, NAD(P)H-Glo luminescence; read-out: HSD17β13 IC50
Method in brief: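 Recombinant human HSD17B13 in 20 mM Tris pH7.4 with 0.002% Tween-20 and 0.02% BSA was preincubated with inhibitor for 20 minutes at RT. The reaction ran 3 hours at 37° C with 50 uM estradiol and 1 mM NAD+ (final). NADH formed was detected by NAD(P)H-Glo luminescence after 1 hour at RT.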

SMILES	IC50
COC1CCCN(c2ncc3c(-c4cc(C(F)(F)F)c(F)c(O)c4F)nn(C)c3n2)C1 (stereo not shown) [Compound 18.06, 2,6-Difluoro-3-(6-(3-methoxypiperidin-1-yl)-1-methyl-1H-pyrazolo[3,4-d]pyrimidin-3-yl)-5-(trifluoromethyl)phenol]	< 100 nM
Cn1nc(-c2cc(C(F)(F)F)c(F)c(O)c2F)c2cnc(N3CCOC(C(N)=O)C3)nc21 (stereo not shown) [Compound 18.07, 4-(3-(2,4-Difluoro-3-hydroxy-5-(trifluoromethyl)phenyl)-1-methyl-1H-pyrazolo[3,4-d]pyrimidin-6-yl)morpholine-2-carboxamide]	< 100 nM
CN1CCC2(CCN(c3ncc4c(-c5cc(C(F)(F)F)c(F)c(O)c5F)nn(C)c4n3)CC2)C1=O [Compound 18.08, 8-(3-(2,4-Difluoro-3-hydroxy-5-(trifluoromethyl)phenyl)-1-methyl-1H-pyrazolo[3,4-d]pyrimidin-6-yl)-2-methyl-2,8-diazaspiro[4.5]decan-1-one]	< 100 nM
Cn1nc(-c2cc(C(F)(F)F)c(F)c(O)c2F)c2cnc(N3CCC(C(N)=O)CC3)nc21 [Compound 18.09, 1-(3-(2,4-Difluoro-3-hydroxy-5-(trifluoromethyl)phenyl)-1-methyl-1H-pyrazolo[3,4-d]pyrimidin-6-yl)piperidine-4-carboxamide]	< 100 nM
Cn1nc(-c2cc(C(F)(F)F)c(F)c(O)c2F)c2cnc(N3CCC4(CCNC4=O)CC3)nc21 [Compound 18.10, 8-(3-(2,4-Difluoro-3-hydroxy-5-(trifluoromethyl)phenyl)-1-methyl-1H-pyrazolo[3,4-d]pyrimidin-6-yl)-2,8-diazaspiro[4.5]decan-1-one]	< 100 nM
Cn1nc(-c2cc(C(F)(F)F)c(F)c(O)c2F)c2cnc(N3[C@@H]4CNC[C@H]3COC4)nc21 [Compound 18.11, 3-(6-((1R,5S)-3-oxa-7,9-diazabicyclo[3.3.1]nonan-9-y1)-1-methyl-1H-pyrazolo[3,4-d]pyrimidin-3-y1)-2,6-difluoro-5-(trifluoromethyl)phenol]	100 to 1000 nM
Cn1nc(-c2cc(C(F)(F)F)c(F)c(O)c2F)c2cnc(N3CC4(CCCNC4=O)C3)nc21 [Compound 18.12, 2-(3-(2,4-Difluoro-3-hydroxy-5-(trifluoromethyl)phenyl)-1-methyl-1H-pyrazolo[3,4-d]pyrimidin-6-yl)-2,6-diazaspiro[3.5]nonan-5-one]	100 to 1000 nM
Cn1nc(-c2cc(C(F)(F)F)c(F)c(O)c2F)c2cnc(N3CCC34CCOCC4)nc21 [Compound 18.13, 2,6-Difluoro-3-(1-methy1-6-(7-oxa-1-azaspiro[3.5]nonan-1-y1)-1H-pyrazolo[3,4-d]pyrimidin-3-y1)-5-(trifluoromethyl)phenol]	< 100 nM
Cn1nc(-c2cc(C(F)(F)F)c(F)c(O)c2F)c2cnc(N3CCC(CO)CC3)nc21 [Compound 18.14, 2,6-Difluoro-3-(6-(4-(hydroxymethyl)piperidin-1-y1)-1-methyl-1H-pyrazolo[3,4-d]pyrimidin-3-y1)-5-(trifluoromethyl)phenol]	< 100 nM
Cn1nc(-c2cc(C(F)(F)F)c(F)c(O)c2F)c2cnc(N3CCC4(CCC(=O)N4)CC3)nc21 [Compound 18.15, 8-(3-(2,4-Difluoro-3-hydroxy-5-(trifluoromethyl)phenyl)-1-methyl-1H-pyrazolo[3,4-d]pyrimidin-6-yl)-1,8-diazaspiro[4.5]decan-2-one]	< 100 nM
Cn1nc(-c2cc(C(F)(F)F)c(F)c(O)c2F)c2cnc(N3CCC4(CC3)CC(=O)N4)nc21 [Compound 18.16, 7-(3-(2,4-Difluoro-3-hydroxy-5-(trifluoromethyl)phenyl)-1-methyl-1H-pyrazolo[3,4-d]pyrimidin-6-yl)-1,7-diazaspiro[3.5]nonan-2-one]	< 100 nM
CN1CCN(c2ncc3c(-c4cc(C(F)(F)F)c(F)c(O)c4F)nn(C)c3n2)CC12CC2 [Compound 18.17, 2,6-Difluoro-3-(1-methyl-6-(4-methyl-4,7-diazaspiro[2.5]octan-7-y1)-1H-pyrazolo[3,4-d]pyrimidin-3-y1)-5-(trifluoromethyl)phenol]	< 100 nM
Cn1nc(-c2cc(C(F)(F)F)c(F)c(O)c2F)c2cnc(N3CCNC4(CC4)C3)nc21 [Compound 18.18, 2,6-Difluoro-3-(1-methyl-6-(4,7-diazaspiro[2.5]octan-7-y1)-1H-pyrazolo[3,4-d]pyrimidin-3-y1)-5-(trifluoromethyl)phenol]	< 100 nM
CCN1CCN(c2ncc3c(-c4cc(C(F)(F)F)c(F)c(O)c4F)nn(C)c3n2)CC1=O [Compound 18.19, 4-(3-(2,4-Difluoro-3-hydroxy-5-(trifluoromethyl)phenyl)-1-methyl-1H-pyrazolo[3,4-d]pyrimidin-6-yl)-1-ethylpiperazin-2-one]	100 to 1000 nM
COCC1(N(C)c2ncc3c(-c4cc(C(F)(F)F)c(F)c(O)c4F)nn(C)c3n2)CCC1 [Compound 18.20, 2,6-Difluoro-3-(6-((1-(methoxymethyl)cyclobutyl)(methy 1)amino)-1-methy1-1H-pyrazolo[3,4-d]pyrimidin-3-y1)-5-(trifluoromethyl)phenol]	< 100 nM
Cn1nc(-c2cc(C(F)(F)F)c(F)c(O)c2F)c2cnc(N3CCN(C4CC4)C(=O)C3)nc21 [Compound 18.21, 1-Cyclopropyl-4-(3-(2,4-difluoro-3-hydroxy-5-(trifluoromethyl)phenyl)-1-methyl-1H-pyrazolo[3,4-d]pyrimidin-6-y1)piperazin-2-one]	< 100 nM
CC(=O)NC1CCN(c2ncc3c(-c4cc(C(F)(F)F)c(F)c(O)c4F)nn(C)c3n2)CC1 [Compound 18.22, N-(1-(3-(2,4-Difluoro-3-hydroxy-5-(trifluoromethyl)phenyl)-1-methyl-1H-pyrazolo[3,4-d]pyrimidin-6-y1)piperidin-4-yl)acetamide]	< 100 nM
Cn1nc(-c2cc(C(F)(F)F)c(F)c(O)c2F)c2cnc(N3CCC(NS(C)(=O)=O)CC3)nc21 [Compound 18.23, N-(1-(3-(2,4-Difluoro-3-hydroxy-5-(trifluoromethyl)phenyl)-1-methyl-1H-pyrazolo[3,4-d]pyrimidin-6-yl)piperidin-4-yl)methanesulfonamide]	< 100 nM
Cn1nc(-c2cc(C(F)(F)F)c(F)c(O)c2F)c2cnc(N3CCC4(CCN4)CC3)nc21 [Compound 18.24, 2,6-Difluoro-3-(1-methyl-6-(1,7-diazaspiro[3.5]nonan-7-yl)-1H-pyrazolo[3,4-d]pyrimidin-3-y1)-5-(trifluoromethyl)phenol]	100 to 1000 nM
Cn1nc(-c2cc(C(F)(F)F)c(F)c(O)c2F)c2cnc(N3CCC4(CC3)CNC4=O)nc21 [Compound 18.25, 7-(3-(2,4-Difluoro-3-hydroxy-5-(trifluoromethyl)phenyl)-1-methyl-1H-pyrazolo[3,4-d]pyrimidin-6-yl)-2,7-diazaspiro[3.5]nonan-1-one]	< 100 nM
Cn1nc(-c2cc(C(F)(F)F)c(F)c(O)c2F)c2cnc(N3CCC4(CCCC(=O)N4)CC3)nc21 [Compound 18.26, 9-(3-(2,4-Difluoro-3-hydroxy-5-(trifluoromethyl)phenyl)-1-methyl-1H-pyrazolo[3,4-d]pyrimidin-6-yl)-1,9-diazaspiro[5.5]undecan-2-one]	< 100 nM
CC(C)C(=O)NC1CCN(c2ncc3c(-c4cc(C(F)(F)F)c(F)c(O)c4F)nn(C)c3n2)CC1 [Compound 18.27, N-(1-(3-(2,4-Difluoro-3-hydroxy-5-(trifluoromethyl)phenyl)-1-methyl-1H-pyrazolo[3,4-d]pyrimidin-6-y1)piperidin-4-yl)isobutyramide]	< 100 nM
